According to patent US5817677A, “5-membered heterocycles, medicaments containing these compounds, their use and processes for their preparation” (priority 1995, dated 1998):
Structures can show the parent of a compound that is named as a salt.

Columns and labels:
platelet aggregation = assay: Inhibition of collagen-induced platelet aggregation (Born and Cross) in platelet-rich plasma; type: cell-based, human (platelet-rich plasma of healthy subjects); details: human platelet-rich plasma, 10 minutes preincubation at 37° C., 50% change in optical density
Method: 2. Antithrombotic effect Platelets aggregation is measured by the method of Born and Cross (J. Physiol. 170, 397 (1964)) in platelet-rich plasma of healthy subjects. To inhibit clotting, the blood is treated with sodium citrate, 3.14% in the volume ratio 1:10. Collagen-induced aggregation The course of the decrease in the optical density of the platelet suspension is measured and recorded photometrically after addition of the aggregation-inducing substance. From the angle of inclination of the density curve, the aggregation rate is deduced. The point of the curve at which the greatest light transmission exists is used to calculate the optical density. The amount of collagen is selected to be as low as possible, but in such a way that a reaction curve with an irreversible course results. Commercially available collagen from Hormonchemie, Munich, is used. Before the addition of collagen, the plasma is in each case incubated at 37° C. with the substance for 10 minutes. From the measurements obtained, an EC50 is determined graphically which relates to a 50% change in the optical density in the sense of an inhibition of aggregation.

human platelets = assay: Inhibition of the binding of ^3 H-BIBU 52 to human platelets (fibrinogen binding test); details: ^3 H-BIBU 52 5 nM, human platelet-rich plasma, room temperature, 20 minutes; 50% inhibition of binding
Method: 1. Inhibition of the binding of ^3 H-BIBU 52 to human platelets
The free and bound ligand is separated by centrifugation and quantitatively determined by scintillation counting. From the measurements, the inhibition of ^3 H-BIBU 52 binding by the test substance is determined.
For this purpose, donor blood is taken from an anticubital vein and anticoagulated with trisodium citrate (final concentration 13 mM). The blood is centrifuged at 170×g for 10 minutes and the supernatant platelet-rich plasma (PRP) is removed. The remaining blood is intensely centrifuged off once more to obtain plasma. The PRP is diluted 1:10 with autologous plasma. […] are incubated with […] of physiological saline solution, 100 ml of test substance solution, 50 ml of ^14 C-sucrose (3700 Bq) and 50 ml of ^3 H-BIBU-52 (final concentration: 5 nM at room temperature for 20 minutes. To measure the non-specific binding, instead of the test substance 5 ml of BIBU 52 (final concentration: […]) are employed. The samples are centrifuged at 10,000×g for 20 seconds and the supernatant is removed. 100 ml of this are measured to determine the free ligand. The pellet is dissolved in 500 ml of 0.2N NaOH, and 450 ml are treated with 2 ml of scintillator and 25 ml of 5N Hcl and measured. The residual plasma still remaining in the pellet is determined from the ^14 C content, the bound ligand from ^3 H-measurement.

| Structure (SMILES) | EC50 (platelet aggregation) | IC50 (human platelets) |
| --- | --- | --- |
| O=C(/C=C/c1cn(C2CCNCC2)cn1)N[C@H]1CC[C@H](C(=O)O)CC1 [4(8), 4-[trans-2-[(trans-4-Carboxycyclohexyl)aminocarbonyl]-ethenyl]-1-(4-piperidyl)imidazole dihydrochloride] | 1800 nM | 2500 nM |
| O=C(O)CO[C@H]1CC[C@H](NC(=O)c2cnc(C3CCNCC3)s2)CC1 [2(12), 5-[[trans-4-(Carboxymethoxy)cyclohexyl]aminocarbonyl]-2-(4-piperidyl)-1,3-thiazole hydrobromide] | 140 nM | 72 nM |
| O=C(N[C@H]1CC[C@H](C(=O)O)CC1)c1cn(CCC2CCNCC2)cn1 [4(27), 4-[[trans-4-Carboxycyclohexyl]aminocarbonyl]-1-[2-(4-piperidyl)ethyl]imidazole dihydrochloride] | 280 nM | 190 nM |
| COC(=O)COc1ccc(NC(=O)c2sc(C3CCNCC3)nc2C)cc1 [2(3), 5-[[4-(Methoxycarbonylmethoxy)phenyl]aminocarbonyl]-4-methyl-2-(4-piperidyl)-1,3-thiazole hydrobromide] | 140 nM | 300 nM |
| O=C(O)CC[C@H]1CC[C@H](NC(=O)c2cn(C3CCNCC3)cn2)CC1 [Example 4, 4-[[trans-4-(2-Carboxyethyl)cyclohexyl]aminocarbonyl]-1-(4-piperidyl)imidazole dihydrochloride] | 160 nM | 120 nM |
| O=C(O)COc1ccc(NC(=O)c2nnc(C3CCNCC3)s2)cc1 [4(6), 5-[[4-(Carboxymethoxy)phenyl]aminocarbonyl]-2-(4piperidyl)-1,3,4-thiadiazole hydrochloride] | 170 nM | 64 nM |
| CS(=O)(=O)N(CC(=O)O)[C@H]1CC[C@H](C(=O)Nc2cn(C3CCNCC3)cn2)CC1 [5(2), 4-[[trans-4-(N-Carboxymethyl-N-methanesulphonylamino)-cyclohexyl]carbonylamino]-1-(4-piperidyl)imidazole dihydrochloride] | 3800 nM | 1600 nM |
| O=C(O)CC[C@H]1CC[C@H](NC(=O)c2cnc(C3CCNCC3)s2)CC1 [4(20), 5-[[trans-4-(2-Carboxyethyl)cyclohexyl]aminocarbonyl]-2-(4-piperidyl)-1,3-thiazole hydrobromide] | 120 nM | 63 nM |
| Cc1nc(C2CCNCC2)sc1C(=O)Nc1ccc(OCC(=O)O)cc1 [4(3), 5-[[4-(Carboxymethoxy)phenyl]aminocarbonyl]-4-methyl-2-(4-piperidyl)-1,3-thiazole hydrobromide] | 130 nM | 45 nM |
| O=C(O)COc1ccc(NC(=O)c2cnc(C3CCNCC3)s2)cc1 [4(19), 5-[[4-(Carboxymethoxy)phenyl]aminocarbonyl]-2-(4-piperidyl)-1,3-thiazole hydrate] | 100 nM | 38 nM |
